Among the data in PubChem BioAssay AID1626 (SRMLSC, 2009) are IC50, IC90 and CC50 values, retold here.

This assay has as its system M. tuberculosis H37Rv growth inhibition. The assay can be described thus: M. tuberculosis H37Rv growth inhibitors, H37Rv strain (AID 1626). Particulars: for IC90: measured here: IC90 against H37Rv; for CC50: measured here: Vero cell cytotoxicity.

For the compound `COC(=O)C1C(O)=C(C=Nc2ccc3ccccc3c2)C(=O)CC1(C)C` (configuration not stated), the concentration for half-maximal inhibition (IC50) is 33.7 µM and the 90% effect concentration (IC90) is greater than 100 µM.

As to `Cc1sc2nc[nH]c(=S)c2c1-c1ccccc1`, the concentration for half-maximal inhibition (IC50) is 32.3 µM, the 90% effect concentration (IC90) is greater than 100 µM and the CC50 is greater than 40 µM.

In the case of `COCCCNC(=O)COC(=O)c1ccc(-c2nc3ccccc3s2)s1`, the IC50 was 14.4 µM, the 90% effect concentration (IC90) amounted to 26.9 µM and the CC50 is greater than 40 µM.

Take `CCOC(=O)c1ccc2ncc(C(=O)OCC)c(Nc3ccc(N4CCOCC4)cc3)c2c1`: the 50% inhibitory concentration (IC50) is 10.9 µM, the IC90 stood at 22.7 µM and the half-maximal cytotoxic concentration (CC50) is greater than 40 µM.

As to `O=C(CCC(=O)OCc1ccc(C(=O)Oc2ccccc2)cc1)Nc1cccc2ccccc12`, the IC50 is 7.06 µM, the IC90 came to 10.1 µM and the cytotoxic concentration (CC50) is greater than 40 µM.

With `Cc1ccccc1C(=O)N1CCc2cc(-c3nc(NC(=O)Cc4ccc5c(c4)OCO5)sc3C)ccc21`, the 50% cytotoxic concentration (CC50) was greater than 40 µM.

Regarding `O=[N+]([O-])c1ccc(O)c(C=Nc2ccc3oc(Cc4ccc(Cl)cc4)nc3c2)c1`, the IC50 is 26.4 µM and the 90% effect concentration (IC90) was greater than 100 µM.

For `COc1ccc(-c2csc(NC(C)c3nc4cc(Cl)c(N5CCCCC5)cc4n3CCOCCO)n2)cc1` (configuration not stated), the IC50 is 7.74 µM, the concentration for an effect of 90% (IC90) was greater than 100 µM and the CC50 is greater than 40 µM.

In turn, `Cc1ccc(C)c(/C=C/C(=O)c2ccccc(=O)c2O)c1` registered a CC50 of 4.93 µM.

Regarding `Cc1cc(Cl)ccc1OCCCC(=O)NO`, the IC50 is 28.6 µM, the concentration for an effect of 90% (IC90) was greater than 100 µM and the CC50 was found to be 35.7 µM.

With `CC1(C)CC(=O)C2=C(C1)OC(N)=C([N+](=O)[O-])C2c1ccc(C#N)s1` (configuration not stated), the IC50 was 10.9 µM and the 90% effect concentration (IC90) came to 15.2 µM.

As for `COc1cnc(-c2ccccn2)nc1Sc1ccc(F)cc1`, the IC50 is less than 0.195 µM, the IC90 was 12.9 µM and the cytotoxic concentration (CC50) was 19.2 µM.

As for `Cc1sc2nc(CN(C(=O)NC3CCCCC3)C3CCCC3)[nH]c(=O)c2c1C`, the IC50 was 6.11 µM, the IC90 is 26.3 µM and the CC50 is greater than 40 µM.

As for `O=C(OCC(=O)N1CCN(C(=O)c2ccco2)CC1)c1sc2ccccc2c1Cl`, the IC90 is greater than 100 µM.

On to `Cc1ccc(-n2cc(C(=O)c3ccc(N4CCN(C)CC4)cc3)nn2)cc1Cl`, for which the half-inhibitory concentration (IC50) was less than 0.391 µM, the IC90 came out at 4.59 µM and the half-maximal cytotoxic concentration (CC50) worked out at 12 µM.

As for `Cc1ccsc1C(=O)Nc1nc2ccccc2[nH]1`, the IC50 is 20.4 µM, the IC90 is greater than 100 µM and the CC50 was 25.3 µM.

With `CCc1ccc(NC(=O)c2cnc(N3CCN(c4ccccn4)CC3)c3ccccc23)cc1`, the half-inhibitory concentration (IC50) was 0.444 µM, the IC90 turned out to be 5.71 µM and the 50% cytotoxic concentration (CC50) is greater than 40 µM.

For `O=C(COc1ccc(Cl)cc1Cl)N1CCN(C/C=C/c2ccccc2)CC1`, the IC50 is 17 µM, the IC90 was 21.6 µM and the CC50 is greater than 40 µM.

In the case of `CCOC(=O)c1ccc(N=CC2=C(O)CC(C)(C)CC2=O)cc1`, the IC50 is 1.35 µM and the 90% effect concentration (IC90) is greater than 100 µM.

With `CCOC(=O)c1cnc(-n2nc(C)cc2C)nc1NC(C)c1ccccc1` (configuration not stated), the IC50 was 1.06 µM, the 90% effect concentration (IC90) came to 2.08 µM and the 50% cytotoxic concentration (CC50) stood at 36 µM.

As to `CCOC(=O)CSc1nc(-c2ccccc2)ns1`, the IC50 is 5.59 µM and the IC90 was 8.55 µM.

Consider `CCc1nnc(NC(=O)c2cc3ccccc3oc2=O)s1`, for which the half-inhibitory concentration (IC50) was less than 0.195 µM and the 90% effect concentration (IC90) came to 4.5 µM.

Take `O=C(c1ccccc1)N1CCN(c2ccc([N+](=O)[O-])cc2-n2cccc2)CC1`: the IC50 was 4.17 µM, the concentration for an effect of 90% (IC90) came to 7.26 µM and the CC50 is greater than 40 µM.

On to `O=C(Nc1nc(-c2ccncc2)cs1)C1c2ccccc2Oc2ccccc21`, for which the CC50 is greater than 40 µM.

With `O=C(c1cnc(N2CCN(c3ccccn3)CC2)c2ccccc12)N1CCN(c2cccc(Cl)c2)CC1`, the half-maximal inhibitory concentration (IC50) was 8.67 µM, the IC90 is greater than 100 µM and the CC50 is greater than 40 µM.

For the compound `COC(=O)c1cc(Sc2cccc(Cl)c2Cl)ccn1`, the half-maximal inhibitory concentration (IC50) is 11.4 µM and the IC90 is 17 µM.

On to `COc1ccc2c(c1)CCc1cnc(N)nc1-2`, for which the concentration for half-maximal inhibition (IC50) is 69.9 µM, the concentration for an effect of 90% (IC90) is greater than 100 µM and the CC50 was greater than 40 µM.

Regarding `Cc1cccc(OCc2nnc(SCC(=O)OC3CCCCC3)o2)c1`, the IC50 is 1.25 µM and the IC90 worked out at 5.46 µM.

The compound `COCC(=O)Nc1ccc(Br)c(C)c1` returned an IC90 greater than 100 µM.

For `O=C(/C=C/c1ccc(Cl)cc1)c1cccnc1`, the IC50 is 2.01 µM, the concentration for an effect of 90% (IC90) came out at 4.7 µM and the CC50 was 28.5 µM.

In the case of `Cc1ccc2nc(/C(C#N)=C\c3ccc([N+](=O)[O-])o3)[nH]c2c1`, the concentration for half-maximal inhibition (IC50) was less than 0.195 µM, the IC90 was less than 0.195 µM and the CC50 came out at 3.11 µM.

In turn, `C=CCOc1ccc(/C=N/O)cc1Cl` came in with an IC90 greater than 100 µM.

For `Clc1ccc(Nc2ncn[nH]2)c(Cl)c1`, the 50% inhibitory concentration (IC50) was 6.68 µM, the concentration for an effect of 90% (IC90) was greater than 100 µM and the CC50 is greater than 40 µM.

The compound `CCOc1ccc(NC(=O)Nc2ccccc2SC)cc1` had a CC50 greater than 40 µM.

As to `O=C1CSc2ccc(C(=O)Nc3cccc(S(=O)(=O)Nc4ccc(Br)cc4)c3)cc2N1`, the IC50 is 7.03 µM, the IC90 stood at 11.9 µM and the CC50 came to 16.5 µM.

Consider `CC(=O)Nc1cccc(C(=O)/C=C/c2ccc(Br)cc2)c1`, for which the IC50 is 6.48 µM, the IC90 turned out to be 9.82 µM and the cytotoxic concentration (CC50) amounted to 10.7 µM.

As to `CC(=O)C1=C(C)NC(SCC(=O)c2ccc(F)cc2)=C(C#N)C1c1ccco1` (configuration not stated), the IC50 is 11.7 µM, the concentration for an effect of 90% (IC90) was found to be 21.1 µM and the CC50 is greater than 40 µM.

Take `CC(C)OC(=O)CSc1ncnc2c1cnn2-c1ccccc1`: the IC50 is 8.75 µM and the IC90 amounted to 25.2 µM.

For `CC(C)(C)c1ccccc1OCCOCCN1CCCCCC1`, the concentration for half-maximal inhibition (IC50) was 57.8 µM and the IC90 was greater than 100 µM.

As to `COc1ccc2nc(SCC(=O)Nc3ccc4c(c3)CCC4)[nH]c2c1`, the concentration for half-maximal inhibition (IC50) is 15.6 µM and the IC90 is greater than 100 µM.

For the compound `O=C(O)C1CCCCC1C(=O)Nc1ccc2c(c1)CCC2` (configuration not stated), the half-inhibitory concentration (IC50) is 73.5 µM and the IC90 was greater than 100 µM.

On to `O=C(Oc1ccc2cc(Br)ccc2c1)c1cccnc1`, for which the IC50 was 1.38 µM, the IC90 was greater than 100 µM and the cytotoxic concentration (CC50) was greater than 40 µM.

`O=C(CSc1ccc([N+](=O)[O-])cn1)Nc1ccc2c(c1)OCCO2`: the IC50 was 51.3 µM and the IC90 was greater than 100 µM.

For the compound `O=c1oc2ccc(Br)cc2cc1-c1nc2ccccc2o1`, the IC50 is 2 µM and the concentration for an effect of 90% (IC90) came out at 3.83 µM.

For the compound `Cc1nn(-c2ccccc2)c2c1C(c1ccc(O)c(O)c1)N1C(=N2)C(Nc2ccccc2)=Nc2ccccc21` (configuration not stated), the IC50 was 1.5 µM, the IC90 was found to be 2.11 µM and the CC50 is 8.02 µM.

For `CCc1nnc(NC(=O)c2ccc3ccccc3n2)s1`, the concentration for half-maximal inhibition (IC50) was 12.1 µM, the IC90 is greater than 100 µM and the CC50 is greater than 40 µM.

Turning to `CCOc1ccc(N/C(C)=C/C(=O)c2ccc(C)o2)cc1`, the IC50 is 13.3 µM and the IC90 was greater than 100 µM.

Regarding `Cc1ccc(SC/C(O)=C(\C#N)c2nc3ccccc3n2C)cc1`, the cytotoxic concentration (CC50) is greater than 40 µM.

As to `COc1cccc(C2C3=C(N=c4s/c(=C\c5cccc(O)c5)c(=O)n42)c2ccccc2CC3)c1OC` (configuration not stated), the concentration for half-maximal inhibition (IC50) is 8.79 µM, the 90% effect concentration (IC90) came to 13.9 µM and the CC50 was found to be 23.9 µM.

As for `CCOC(=O)c1ccc(NC(=O)CSc2nnc(COc3ccccc3OC)n2C)cc1`, the 90% effect concentration (IC90) is greater than 100 µM.

Turning to `CCOC(=O)C1CCCN(c2ccc([N+](=O)[O-])c3nonc23)C1` (configuration not stated), the IC50 is 1.46 µM and the 90% effect concentration (IC90) was determined as 1.6 µM.

As to `O=c1cc(-c2c(F)c(F)c(F)c(F)c2F)oc2ccccc12`, the IC50 was 0.221 µM, the IC90 was 2.3 µM and the CC50 is greater than 40 µM.

For the compound `Clc1ccc(-c2ccc(C=Nc3ccc(N4CCOCC4)cc3)o2)cc1`, the concentration for half-maximal inhibition (IC50) is 7.5 µM and the concentration for an effect of 90% (IC90) was greater than 100 µM.

Take `COc1ccc(NC(=O)COc2ccc3c(c2)CCC3)cc1`: the IC50 was 16.4 µM and the 90% effect concentration (IC90) was greater than 100 µM.

On to `Cn1c(-c2ccccc2)cc2c3no[n+]([O-])c3ccc21`, for which the half-inhibitory concentration (IC50) is less than 0.195 µM, the 90% effect concentration (IC90) amounted to 0.445 µM and the 50% cytotoxic concentration (CC50) worked out at 2.6 µM.

`Cc1[nH]n(-c2ccccc2)c(=O)c1N=Nc1nccs1`: the IC50 was 2.8 µM, the concentration for an effect of 90% (IC90) was determined as 5.14 µM and the cytotoxic concentration (CC50) was found to be 29.5 µM.

The compound `O=C(CSCc1ccc(Cl)cc1)Nc1ccc(-c2nnc(-c3ccccc3)o2)cc1` registered a CC50 of 6.18 µM.

Regarding `COc1ccc(N=Cc2c[nH][nH]c2=O)cc1`, the IC90 is greater than 100 µM.

On to `Cc1ccc(NC(=O)CCn2cnc3ccccc3c2=O)cc1Cl`, for which the IC90 was greater than 100 µM.

Take `CCCCCCn1c(=O)c(C(=O)Nc2nc(CC(=O)OCC)cs2)c(O)c2ccccc21`: the IC50 is less than 0.195 µM, the 90% effect concentration (IC90) is less than 0.195 µM and the 50% cytotoxic concentration (CC50) amounted to 4.53 µM.

Consider `O=C(Oc1ccc(Cl)cc1)c1ccc(N2CCOCC2)c([N+](=O)[O-])c1`, for which the IC50 was 1.46 µM and the 90% effect concentration (IC90) amounted to 3.16 µM.

Regarding `CCCCCCCCCn1c2c(c(=N)c3c1CCC3)CCCC2`, the IC50 is 4.41 µM, the 90% effect concentration (IC90) turned out to be 5.68 µM and the cytotoxic concentration (CC50) worked out at 7.25 µM.

`CCOC(=O)CSc1ncnc2c1cnn2-c1ccc(Cl)cc1`: the IC50 was 1.03 µM and the IC90 is greater than 100 µM.

`O=C(COc1ccc(Cl)cc1)Nc1nnc(-c2ccc3c(c2)CCCC3)o1`: the IC50 is 54.3 µM, the IC90 was greater than 100 µM and the half-maximal cytotoxic concentration (CC50) is greater than 40 µM.

As to `Cc1c(Cl)c([N+](=O)[O-])nn1CCCC(=O)Nc1cc(Oc2ccccc2)cc([N+](=O)[O-])c1`, the IC50 is 6.86 µM, the IC90 is 10.5 µM and the 50% cytotoxic concentration (CC50) was determined as 28.7 µM.

Regarding `CCC(=O)c1ccc(OCC(=O)Nc2ccc3nc(C)sc3c2)cc1`, the half-inhibitory concentration (IC50) was 6.26 µM and the 90% effect concentration (IC90) is greater than 100 µM.

Consider `CCCCNC(=O)Nc1nnc(-c2ccc(Cl)cc2)o1`, for which the IC50 is 1.33 µM and the 90% effect concentration (IC90) was found to be 3.59 µM.

Consider `O=[N+]([O-])c1ncn(Cc2c(Cl)cccc2Cl)n1`, for which the concentration for half-maximal inhibition (IC50) is 36.6 µM and the 90% effect concentration (IC90) is greater than 100 µM.
